Measurements taken from US6670329B2, “Selenocosmia huwena toxin and analgesic uses thereof” (priority 2000, dated 2003).
Where “and” joins values, the source holds several entries; their conditions need not be identical. Identical values can stand only once.

Experiments:
Sprague-Dawley rats = conditions: rat, in vivo
Description: Adult Sprague-Dawley rats were anesthetized with 2% sodium pentobarbital (40 mg/kg, ip.). The neck skin was cut to expose the occipital membrane. HWAP-I, formulated in normal saline, was administered by a PE-10 polyethylene tube (14 cm) inserted into the epidural space (depth of insert: 7 cm) to the site of intumescence at the rats' waist. The insertion position of the tube was confirmed by anatomization after the experiment.
Pain tolerance assays were performed 1-4 days after the operation. A healthy rat was put into a fixed canister with its tail drooping from the bottom of the vessel. There were three spots on the tail labeled for irradiation. The intensity of light was adjusted so that the tail flick latency (TFL) of rat was within 2-4 seconds. The average of TFLs determined three times before drug treatment was deemed the baseline pain threshold of the rat. HWAP-I was administered to the rat using the inserted tube. After 20 minutes, the pain threshold was determined. The analgesic effect (AE) was calculated according the following formula: [formula]
wherein Tp is the TLF post-drug treatment, and TB is the baseline pain threshold.
The upper limit of the increased rate of pain threshold was 200% in order to avoid hurting the skin of rat-tail, e.g.., when the baseline pain threshold was 3 seconds. Irradiation was stopped as soon as the TFL exceeded 9 seconds.
54 rats (160-220 g), of either gender, whose TB basic pain thresholds were within 3-4 seconds, were chosen and divided randomly into six groups of nine rats. The rats in each group were treated with HWAP-I at a dose of 120 μg/kg, 180 μg/kg, 240 μg/kg, 300 μg/kg, 360 μg/kg respectively and with normal saline in control group.

[1] = test system: mouse phrenic nerve-diaphragm preparation; test: mouse phrenic nerve-diaphragm assay for inhibition of neuromuscular transmission
[2] = test system: high-voltage-activated Ca2+ channel expressed in prostaglandin E1 differentiated NG108-15 cells; test: Ca2+ channel inhibition assay (patch clamp, Ba2+ as charge carrier); format: cell-based
Description: (§1) Ca^2+ channel Inhibition Assay. […] Cells were cultured in 90% Dulbecco's modified Eagle's medium (DMEM) with 10% newborn calf serum, hypoxanthine aminopterin thymidine supplement and penicillin-streptomycin. Cells were transferred to plates for electrophysiological experiments and cultured with 1% calf serum and […] DMEM. Prostaglandin E1 (10 μM) and 3-isobutyl-1-methylxanthine (50 μM) were added to the medium. Macroscopic Ca^2+ channel currents (filtered at 10 kHz, digitized at […] with a EPC-9 patch clamp amplifier, HEKA Electronics, Germany) were recorded at room temperature using Ba^2+ as the charge carrier. Cells were held at −40 mV potential and then depolarized to 0 mV. […] Inhibition was dose dependent. The EC50 for inhibition was approximately 100 nM (EC50≈100 nM). HWAP-I is highly specific for this channel as the low-voltage-activated Ca^2+ channel was unaffected.

[3] = test system: low-voltage-activated Ca2+ channel; test: Ca2+ channel inhibition assay, low-voltage-activated channel; format: cell-based
Description: as §1

rats = test: rat tail flick pain threshold, subarachnoid space administration; format: in vivo; conditions: for increase of pain threshold: in an hour
Description: The method was testing using the rat experimental system. After anesthesia, the neck skin of a rat was cut. The occcipital membrane was exposed and a hole with 1 mm diameter was made with #5 needle. […] The insertion position of the tube was later confirmed by anatomization after experiment.
Assays were performed in 1-3 days after the operation. 28 rats (130-230 g), of either gender, whose basic pain thresholds were within 2-4 seconds, were chosen and divided randomly into four groups of seven rats.

New Zealand rabbits = conditions: rabbit, in vivo

Compound	analgesic effect decreased from maximum to, within a single hour (Sprague-Dawley rats) [%]	duration of block of neuromuscular transmission ([1]; 1·10^−5 g/ml) [min]	effect on indirect twitch response ([1]; electrical stimulation of phrenic nerve)	inhibition of the Ca2+ current ([2]; 10 μM, held at −40 mV, depolarized to 0 mV)	EC50 ([2]; NG108-15 cells, room temperature, read-out: EC50 for inhibition of Ca2+ current) [nM]	effect on low-voltage-activated Ca2+ channel [3]	adverse effects (Sprague-Dawley rats)	analgesic effect (Sprague-Dawley rats)	duration time of analgesic effect (Sprague-Dawley rats)	increase of pain threshold (Sprague-Dawley rats)	duration of analgesic effect compared with morphine hydrochloride (5 μg/kg) (rats; subarachnoid)	increase of pain threshold (rats; subarachnoid, 1.5 μg/kg)	duration of analgesic effect (rats; subarachnoid, 3.0 μg/kg)	increase of pain threshold (rats; subarachnoid, 3.0 μg/kg) [%]	adverse effects (rats; subarachnoid, 8 μg/kg, most restored to normal without sequela)	analgesic effect (rats; subarachnoid, 0.6, 1.5, 3.0 μg/kg)	analgesic effect in formalin pain model (New Zealand rabbits)	duration of the analgesic effect (New Zealand rabbits) [h]	toxic side effects (New Zealand rabbits)
CN1CC[C@]23c4c5ccc(O)c4O[C@H]2[C@@H](O)C=C[C@H]3[C@H]1C5.Cl [morphine, morphine hydrochloride, reference compound]	50																		
NH2-Ala-Cys-Lys-Gly-Val-Phe-Asp-Ala-Cys-Thr-Pro-Gly-Lys-Asn-Glu-Cys -Cys-Pro-Asn-Arg-Val-Cys-Ser-Asp-Lys-His-Lys-Trp-Cys-Lys-Trp-Lys-Leu-COOH (H-ACKGVFDACTPGKNECCPNRVCSDKHKWCKWKL-OH; cysteine pairing not given here) [HWAP-I]		14.3 ± 3.2	inhibition of the indirect twitch response	potent inhibitor	~100	unaffected	ataxia in the quarters	had analgesic effects	over 3 hours	50-70% and 100%	longer than that of morphine	40-50%	over 3 hours	100	becoming ataxic in the quarters	had analgesic effects	potent and robust analgesic effect	5 to 6	no obvious toxic side effects were observed
